This note sets out measurements from US9486544B2, “Manganese chelates and their use as contrast agents in magnetic resonance imaging (MRI)” (GE Healthcare AS, priority 2009, dated 2016).

Read-outs that look alike come from different tables or passages of the source.

What all share (format): physicochemical
Series [1] is described as follows: Relaxivity analysis in human serum. The note with it: 0.05 to 1 mM complex. As for the experimental part: (§1) The relaxivity measurements were performed with a range of 0.05 to 1 mM complex solutions on a Bruker Minispec PC 120b-NA 770, at 20 MHz or a Bruker Minispec Mq 60m at 60 MHz and 37° C. The solutions were obtained by dissolving the appropriate amount of chelate in degassed Millipore water or human serum.

Series [2] is described as follows: Relaxivity analysis in water. The note with it: degassed Millipore water, 0.05 to 1 mM complex. As for the experimental part:
as §1

A short description of series [3]: Water exchange measurements (variable-temperature 17O NMR). The note with it: TRIS 0.05 M pH 7.4, 6 to 15 mM complex. As for the experimental part:
Water Exchange Measurements
The water exchange measurements were performed with 6 to 15 mM complex solutions. The solutions were obtained by dissolving the appropriate amount of complex in 0.6 mL of buffer solution (TRIS, 0.05 M, pH 7.4 in degassed Millipore water at ca. 3 atom % ^17O-enrichment); Variable-temperature Fourier transform ^17O NMR spectra were recorded at a frequency of 40.7 MHz on a Varian Unity 300 MHz spectrometer. The temperatures were measured using methanol and ethylene glycol standards. The temperature dependence of the ^17O line broadening for each system was measured over a temperature range from 273.7 to 356.1 K. Each temperature was calibrated using a methanol or ethylene glycol standard.

Series [4] can be described thus: Kinetic stability: exchange reaction with Zn2+ in acetate buffer, monitored by relaxivity. The note with it: acetate buffer with Zn2+ challenge, acetate buffer 10 mM, 25° C., chelate approx. 0.5 mM, read-out: Dissociation Half life t1/2. As for the experimental part:
The kinetic stability of manganous chelates was characterized by the rates of exchange reaction with Zn^2+, in acetate buffer (10 mM) set to various pH. The increase of free manganous ions was monitored using a Bruker Minispec PC 120b-NA 770, at 20 MHz and 25° C. The total ionic strength was adjusted to 0.5M with KCl. The chelate concentration was approximately 0.5 mM for all measurements.
The change in concentration of chelated manganese, upon challenge with zinc ions, was monitored spectroscopically. When zinc displaces a manganous ion a net increase in relaxivity was observed as the free manganous ion has a relaxivity of ˜10 mM^−1s^−1, whereas the studied manganese chelates have a lower relaxivity.
The pseudo first-order rate constants (kobs) were calculated by fitting the relaxivity data to the following equation: […] in which At, A0, and Ae are the relaxivity values at time t, the start of the reaction, and at equilibrium, respectively. The dissociation half life was derived from kobs.

Regarding `CN1CCN2CC(=O)[O][Mn][O]C(=O)CN(CC1)Cc1cc(NC(=O)c3ccccc3)cc(n1)C2` [Example 6, manganese complex of N,13-Benzamide-3,6,9,15-tetraaza-3,9-bis-(carboxymethyl)-6-methyl-bicyclo[9.3.1]pentadeca-1(14),11(15),12-triene], in series [1], the “Relaxivity Human Serum @ 60 MHz, 37° C.” value was 8.8 mM⁻¹ s⁻¹.
With `CN1CCN2CC(=O)[O][Mn][O]C(=O)CN(CC1)Cc1cccc(n1)C2` [Example 1, manganese(II) complex of 3,6,9,15-tetraaza-3,9-bis-(carboxymethyl)-6-methyl-bicyclo[9.3.1]pentadeca-1(14),11(15),12-triene], the “Relaxivity Water @ 20 MHz, 37° C.” value in series [2] was found to be 2.4 mM⁻¹ s⁻¹. The “Relaxivity Human Serum @ 60 MHz, 37° C.” value in series [1] is 4.6 mM⁻¹ s⁻¹. Moreover, the Water residence time in series [3] worked out at 16 ns. Also, the half-life at 0.5 mM in series [4] (pH 4.6, pH 4.6, [Zn] 10 mM) is 10 min; in series [4] (pH 5, pH 5.0, [Zn] 10 mM), 21 min; in series [4] (pH 5.2, pH 5.2, [Zn] 10 mM), 30 min; in series [4] (pH 5.2, pH 5.2, [Zn] 20 mM), 37 min; in series [4] (pH 5.4, pH 5.4, [Zn] 10 mM), 44 min; in series [4] (pH 5.6, pH 5.6, [Zn] 10 mM), 72 min. Also, the half-life at 0.5 mM in series [4] (pH 5.6, pH 5.6, [Zn] 20 mM) worked out at 77 min.
As to `O=C1CN2CCNCCN(CC(=O)[O][Mn][O]1)Cc1cccc(n1)C2` [Compound disclosed in US5334371, reference compound], the half-life at 0.5 mM is 3 min in series [4] (pH 4.6, pH 4.6, [Zn] 10 mM); 6 min in series [4] (pH 5, pH 5.0, [Zn] 10 mM); 9 min in series [4] (pH 5.2, pH 5.2, [Zn] 10 mM); 10 min in series [4] (pH 5.2, pH 5.2, [Zn] 20 mM); 15 min in series [4] (pH 5.4, pH 5.4, [Zn] 10 mM); 22 min in series [4] (pH 5.6, pH 5.6, [Zn] 10 mM). Also, in series [4] (pH 5.6, pH 5.6, [Zn] 20 mM), the half-life at 0.5 mM was 23 min.
As for `CN1CCN2CC(=O)[O][Mn][O]C(=O)CN(CC1)Cc1cc(NC(=O)c3cc(C(=O)Nc4cc5nc(c4)CN4CCN(C)CCN(CC(=O)[O][Mn][O]C(=O)C4)C5)cc(C(=O)Nc4cc5nc(c4)CN4CCN(C)CCN(CC(=O)[O][Mn][O]C(=O)C4)C5)c3)cc(n1)C2` [Example 2, manganese(II) complex of N1,N3,N5-tris[3,6,9,15-tetraaza-3,9-bis-(carbonylmethyl)-6-methyl-bicyclo[9.3.1]pentadeca-13-trienyl]benzene-1,3,5-tricarboxamide], in series [2], the “Relaxivity Water @ 20 MHz, 37° C.” value turned out to be 3.8 mM⁻¹ s⁻¹. The “Relaxivity Human Serum @ 60 MHz, 37° C.” value in series [1] is 10.5 mM⁻¹ s⁻¹. The same compound registered a Water residence time in series [3] of 14 ns.
In the case of `O=C(O)CN1CCN2CC(=O)[O][Mn][O]C(=O)CN(CC1)Cc1cccc(n1)C2` [Compound disclosed in US5334371, reference compound], the “Relaxivity Water @ 20 MHz, 37° C.” value in series [2] came out at 1.3 mM⁻¹ s⁻¹.
